Assays:
OCUM-2M cells [1] = assay: ADCC assay, EC50 by curve fitting (Example 5); assay type: cell-based, human; settings: E:T 25:1, 16 hours, percent specific lysis
Experimental: (§1) Ba/F3 FGFR2IIIb-expressing target cells were generated as described before. OCUM-2M cells were obtained from Osaka City University, Osaka, Japan. All cells were cultured using standard methods. Freshly isolated PMBC from healthy donors were obtained from AllCells, Emeryville, Calif.
(§2) ADCC assays were conducted using freshly isolated human PBMCs as effector cells at an effector to target (E:T) cell ratio of 25:1. The target cells were incubated for 16 hours in the presence of effectors and increasing concentrations of antibody. All conditions were tested in triplicate. Cytotoxicity was determined by quantifying LDH release as per the manufacturer's recommendations (Promega's CytoTox Non-Radioactive Cytotoxicity Assay). For the OCUM-2M cells, maximal lysis was determined in the presence of 5% Triton X-100, and spontaneous release was determined in the absence of antibody. Percentage of specific lysis was calculated as a percentage of maximal lysis less spontaneous release, as follows: (experimental−spontaneous release)/(maximal−spontaneous release)×100=% specific lysis. GraphPad software curve-fitting analysis was used to obtain EC50 values.

[2] = test system: FGFR2IIIb-expressing Ba/F3 cells; assay: ADCC assay with human PBMC effectors, LDH release (Example 3); assay type: cell-based; settings: E/T 25:1, 16 hours
Experimental: Ba/F3 FGFR2IIIb-expressing target cells were produced as follows. Ba/F3 cells acquired from Leibniz-Institut DSMZ-Deutsche Sammlung von Mikroorganismen and Zellkulturen GmbH (DSMZ, cat #ACC300, Braunschweig, Germany) were maintained in RPMI (Mediatech, cat #10-041-CV, Manassas, Va.), supplemented with 10% fetal bovine serum (Mediatech, cat #35-010-CV), 1 ng/mL murine IL-3 (Peprotech, cat #213-13, Rocky Hill, N.J.), 1×BME (Invitrogen, cat #1047574, Grand Island, N.Y.), and 1× Penicillin-streptomycin (Mediatech cat #30-002-C1). […]
ADCC assays were conducted using effector cells from 3 independent donors on 3 different days. […] Cytotoxicity was determined by quantifying LDH release as per the manufacturer's instructions (CytoTox Non Radioactive Cytotoxicity Assay, Promega, Madison, Wis.).
(§3) Maximal lysis was determined in the presence of 5% Triton X-100, and spontaneous release was determined in the absence of antibody. Percentage of specific lysis was calculated as follows, as a percentage of maximal lysis less spontaneous release: (experimental−spontaneous release)/(maximal−spontaneous release)×100=% specific lysis

[3] = test system: OCUM-2M human gastric cancer xenograft with FGFR2 amplification; assay: OCUM-2M gastric cancer xenograft model; assay type: in vivo, CB17 SCID mice; settings: for tumor response: 10 mg/kg intraperitoneal twice per week
Excerpt: Six week old female CB17 SCID mice were purchased from Charles River Laboratories (Wilmington, Mass.) and were acclimated for 1 week before the start of the study. Human gastric carcinoma cell line OCUM-2M or breast carcinoma cell line MFM-223 were used as the tumor models. OCUM-2M was purchased from Public University Corporation Osaka City University (OCU, Osaka, Japan), and MFM-223 was purchased from Culture Collections, Public Health England (98050130, HPA Culture Collections, Salisbury, UK). The cells were cultured for up to three passages in complete growth medium to expand for implantation. OCUM-2M and MFM-223 cells were cultured in Dulbecco's […] (DMEM) and Minimum Essential Medium (MEM), respectively. All medium was supplemented with 10% heat-inactivated Fetal Bovine Serum (FBS), 2 mM L-Glutamine, and Penicillin-Streptomycin solution. Cells were grown at 37° C. in a humidified atmosphere with 5% CO2.
When the cultured cells reached 85-90% confluence, cells were harvested and resuspended in cold Ca^2+ and Mg^2+ free phosphate buffered saline (PBS) containing 50% Matrigel (BD BioSciences, San Jose, Calif.). OCUM-2M cells were implanted subcutaneously over the right flank of the mice at 5×10^5 cells/100 μl/mouse. MFM-223 cells were implanted subcutaneously over the right flank of the mice at 5×10^5 cells/100 μl/mouse, and 0.72 mg 90-day release […] estradiol pellets (Innovative Research of America, Sarasota, Fla.) were inoculated subcutaneously into the right flank. Mice were monitored twice weekly following cell implantation for tumor growth. Tumor size was measured according to the formula: Tumor size (mm^3)=([…])/2. When MFM-223 tumors reached 80 mm^3 mice were sorted and randomized (n=10), and treatment was initiated. For OCUM-2M tumors, single therapy with anti-FGFR2b was initiated once tumors reached an average size of 100 mm^3, and combination therapy was initiated once tumors reached an average size of 250 mm^3.
(§4) Chemotherapeutic agents were administered via intraperitoneal injection twice per week at 12 mg/kg for paclitaxel, 2.3 mg/kg for fluorouracil (5-FU), and 33 mg/kg for cisplatin. Upon initiation of therapy, tumor sizes were measured in each mouse twice weekly. The length and width of each tumor was measured using calipers and the tumor size calculated according to the formula above. Mice were euthanized when the subcutaneous tumor volumes exceeded 2000 mm^3 or when the tumors became excessively necrotic.
Comparisons of tumor volume […] determined to be statistically significant if P<0.05. P-values were calculated using unpaired, two-tailed t-test analyses of the calculated tumor volumes on the final day upon which tumors were measured.

KATO III cells = assay: ADCC assay with human PBMC effectors, LDH release (Example 3); assay type: cell-based; settings: E/T 25:1, 16 hours; data not shown
Experimental: (§5) MFM-223 cells were obtained from the Health Protection Agency, UK; OCUM-2M cells were obtained from Osaka City University, Osaka, Japan; and KATO III cells were obtained from ATCC, Rockville, Md. All cells were cultured using standard methods. Freshly isolated PMBC from healthy donors were obtained from AllCells, Emeryville, Calif.
(§6) ADCC assays were conducted using effector cells from 3 independent donors on 3 different days. ADCC assay testing was performed using freshly isolated human PBMCs as effector cells at an effector to target (E/T) cell ratio of 25:1. The target cells were incubated for 16 hours in the presence of effectors and increasing concentrations of antibody. The ADCC assay was validated using 2 positive control antibodies, HERCEPTIN® on SKOV-3 target cells and RITUXIN® on Raji target cells. A fully human IgG1 negative control antibody (Eureka Therapeutics, Catalog ET901, Emeryville, Calif.) was used for non-specific cell cytotoxicity. Cytotoxicity was determined by quantifying LDH release as per the manufacturer's instructions (CytoTox Non Radioactive Cytotoxicity Assay, Promega, Madison, Wis.).
as §3

OCUM-2M cells [4] = assay: as above; assay type: cell-based; settings: data not shown
Experimental: as §5, §6, §3

MFM 223 cells = assay: as above; assay type: cell-based; settings: data not shown
Experimental: as §5, §6, §3

[5] = test system: Ba/F3 FGFR2IIIb-expressing target cells; assay: ADCC assay, EC50 by curve fitting (Example 5); assay type: cell-based; settings: FIG. 9
Experimental: as §1, §2

[6] = test system: MFM-223 human breast cancer xenograft; assay: MFM-223 breast cancer xenograft model; assay type: in vivo, CB17 SCID mice; settings: 5 mg/kg
Excerpt: Six week old female CB17 SCID mice were purchased from Charles River Laboratories (Wilmington, Mass.) and were acclimated for 1 week before the start of the study. Human gastric carcinoma cell line OCUM-2M or breast carcinoma cell line MFM-223 were used as the tumor models. OCUM-2M was purchased from Public University Corporation Osaka City University (OCU, Osaka, Japan), and MFM-223 was purchased from Culture Collections, Public Health England (98050130, HPA Culture Collections, Salisbury, UK). The cells were cultured for up to three passages in complete growth medium to expand for implantation. […]
When the cultured cells reached 85-90% confluence, cells were harvested and resuspended in cold Ca^2+ and Mg^2+ free phosphate buffered saline (PBS) containing 50% Matrigel (BD BioSciences, San Jose, Calif.). […] Mice were monitored twice weekly following cell implantation for tumor growth. Tumor size was measured according to the formula: Tumor size (mm^3)=(width (mm)×length (mm)^2)/2. […]
as §4, with “Mice were euthanized when the subcutaneous tumor volumes exceeded 2000 mm^3 or when the tumors became excessively necrotic.” left out

Row | EC50 (ADCC) (OCUM-2M cells [1]) [µg/mL] | Substance | specific lysis compared with αFGFR2bF [2] | final tumor size compared with αFGFR2bF ([3]; 3 mg/kg) | tumor growth compared with αFGFR2bF ([3]; 3 mg/kg) | tumor regression and durability compared with αFGFR2bF ([3]; 3 mg/kg) | durability of response compared with αFGFR2bF ([3]; 10 mg/kg) | final tumor size compared with αFGFR2bF ([3]; 10 mg/kg) | tumor response [3] | final tumor size ([3]; 1 to 5 mg/kg, higher doses more potent) | tumor growth suppression ([3]; 2, 1.5, and 1 mg/kg) | tumor growth suppression ([3]; 3 and 5 mg/kg) | tumor growth ([3]; all doses: 1, 1.5, 2, 3, or 5 mg/kg, start at about 100 mm^3) | ADCC activity compared with αFGFR2bF (KATO III cells) | ADCC activity compared with αFGFR2bF (OCUM-2M cells [4]; E/T 25:1, 16 hours) | maximal specific lysis compared with αFGFR2bF (OCUM-2M cells [4]) | ADCC activity compared with αFGFR2bF (MFM 223 cells; E/T 25:1, 16 hours) | maximal specific lysis compared with αFGFR2bF (MFM 223 cells) | ADCC potency compared with αFGFR2bF [5] | final tumor size compared to albumin control [6] | tumor growth compared to albumin control ([6]; start at about 80 mm^3)
1 | 0.005 | αFGFR2bA: afucosylated humanized anti-FGFR2IIIb monoclonal antibody produced in Potelligent CHOK1SV cells; heavy chain SEQ ID NO: 2, light chain SEQ ID NO: 3 | greater specific lysis | notably reduced final OCUM-2M tumor size | reduced tumor growth | greater tumor regression and durable response | more durable response | significantly reduced final OCUM-2M tumor size | immediate tumor regression | reduced final OCUM-2M tumor size | reduced growth suppression | greatest suppression and durable response | inhibited tumor growth | greater ADCC activity at lower concentrations | greater ADCC activity at lower concentrations | comparable | greater ADCC activity at lower concentrations | comparable | higher potency | significantly reduced final MFM-223 tumor size | dramatically reduced growth of MFM-223 tumors
2 | 0.03 | αFGFR2bF: fucosylated anti-FGFR2IIIb humanized antibody with the same amino acid sequences as αFGFR2bA, produced in CHOK1SV cells [reference compound] |  |  |  |  |  |  | immediate tumor regression |  |  |  |  |  |  |  |  |  |  |  | 

Reference: US11235059B2, “Afucosylated anti-FGFR2IIIB antibodies” (Five Prime Therapeutics, Inc., priority 2013, dated 2022)
